Experimental data from patent US6355799B1, “Substituted benzene compounds, process for their preparation, and herbicidal and defoliant compositions containing them” (ISK Americas Incorporated, priority 1997, dated 2002).

Legend:
Assay type in all cases: in vivo
[1] = tested on: johnsongrass (Sorghum halepense, SORHA); assay: Post-emerge test, greenhouse herbicide activity screening; conditions: post-emerge, 14 days after application, rating scale 0-100
Summary of the method: (§1)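 Applied at 15–1000 g ai/ha from acetone in 187 l/ha spray volume. Post-emergence applications included 0.25% v/v non-ionic surfactant and reached plants sown 8–21 days before. Pre-emergence applications were incorporated by surface watering. Efficacy or crop damage was rated on a 0–100 scale after 14 days.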

[2] = tested on: velvetleaf (Abutilon theophrasti, ABUTH); assay: as above; conditions: post-emerge; for Post-emerge Herbicidal Activity ABUTH (phytotoxicity rating): 14 days after application, rating scale 0-100; for Post-emerge Herbicidal Activity ABUTH: phytotoxicity rating 0-100 at 14 days after application
Summary of the method: as §1

[3] = tested on: sicklepod (Cassia obtusifolia, CASOB); assay: as above; conditions: post-emerge; for Post-emerge Herbicidal Activity CASOB (phytotoxicity rating): 14 days after application, rating scale 0-100; for Post-emerge Herbicidal Activity CASOB: phytotoxicity rating 0-100 at 14 days after application
Summary of the method: as §1

[4] = tested on: lambsquarters (Chenopodium album, CHEAL); assay: as above; conditions: post-emerge; for Post-emerge Herbicidal Activity CHEAL (phytotoxicity rating): 14 days after application, rating scale 0-100; for Post-emerge Herbicidal Activity CHEAL: phytotoxicity rating 0-100 at 14 days after application
Summary of the method: as §1

[5] = tested on: large crabgrass (Digitaria sanguinalis, DIGSA); assay: as above; conditions: post-emerge; for Post-emerge Herbicidal Activity DIGSA (phytotoxicity rating): 14 days after application, rating scale 0-100; for Post-emerge Herbicidal Activity DIGSA: phytotoxicity rating 0-100 at 14 days after application
Summary of the method: as §1

[6] = tested on: green foxtail (Setaria viridis, SETVI); assay: as above; conditions: post-emerge; for Post-emerge Herbicidal Activity SETVI (phytotoxicity rating): 14 days after application, rating scale 0-100; for Post-emerge Herbicidal Activity SETVI: phytotoxicity rating 0-100 at 14 days after application
Summary of the method: as §1

[7] = tested on: barnyardgrass (Echinochloa crus-galli, ECHCG); assay: as above; conditions: post-emerge; for Post-emerge Herbicidal Activity ECHCG (phytotoxicity rating): 14 days after application, rating scale 0-100; for Post-emerge Herbicidal Activity ECHCG: phytotoxicity rating 0-100 at 14 days after application
Summary of the method: as §1

[8] = tested on: redroot pigweed (Amaranthus retroflexus, AMARE); assay: as above; conditions: post-emerge; for Post-emerge Herbicidal Activity AMARE (phytotoxicity rating): 14 days after application; for Post-emerge Herbicidal Activity AMARE: phytotoxicity rating 0-100 at 14 days after application
Summary of the method: as §1

[9] = tested on: ivyleaf morningglory (Ipomoea hederacea, IPOHE); assay: as above; conditions: post-emerge; for Post-emerge Herbicidal Activity IPOHE (phytotoxicity rating): 14 days after application, rating scale 0-100; for Post-emerge Herbicidal Activity IPOHE: phytotoxicity rating 0-100 at 14 days after application
Summary of the method: as §1

[10] = tested on: field corn (Zea mays L., var. Dekalb 535, CORN); assay: Post-emerge test, crop safety; conditions: post-emerge; for Post-emerge Herbicidal Activity CORN (crop damage rating): 14 days after application, rating scale 0-100; for Post-emerge Herbicidal Activity CORN: crop damage rating 0-100 at 14 days after application
Summary of the method: (§2)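 Compounds in acetone were track-sprayed at 15-1000 g ai/ha (187 l/ha) on sandy loam pots: pre-emerge one day after seeding, post-emerge at 2-3 leaf stage with 0.25% v/v non-ionic surfactant. Phytotoxicity was rated 14 days later on a 0 (no damage) to 100 (complete death) scale.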

[11] = tested on: upland rice (Oryza sp., var. Tebonnet, RICE); assay: Post-emerge test, crop safety; conditions: post-emerge; for Post-emerge Herbicidal Activity RICE (crop damage rating): 14 days after application, rating scale 0-100; for Post-emerge Herbicidal Activity RICE: crop damage rating 0-100 at 14 days after application
Summary of the method: as §2

[12] = tested on: johnsongrass (Sorghum halepense, SORHA); assay: Pre-emerge test, greenhouse herbicide activity screening; conditions: pre-emerge, phytotoxicity rating 0-100 at 14 days after application
Summary of the method: as §2

[13] = tested on: velvetleaf (Abutilon theophrasti, ABUTH); assay: as above; conditions: pre-emerge, phytotoxicity rating 0-100 at 14 days after application
Summary of the method: as §2

[14] = tested on: sicklepod (Cassia obtusifolia, CASOB); assay: as above; conditions: pre-emerge, phytotoxicity rating 0-100 at 14 days after application
Summary of the method: as §2

[15] = tested on: lambsquarters (Chenopodium album, CHEAL); assay: as above; conditions: pre-emerge, phytotoxicity rating 0-100 at 14 days after application
Summary of the method: as §2

[16] = tested on: large crabgrass (Digitaria sanguinalis, DIGSA); assay: as above; conditions: pre-emerge, phytotoxicity rating 0-100 at 14 days after application
Summary of the method: as §2

[17] = tested on: green foxtail (Setaria viridis, SETVI); assay: as above; conditions: pre-emerge, phytotoxicity rating 0-100 at 14 days after application
Summary of the method: as §2

[18] = tested on: barnyardgrass (Echinochloa crus-galli, ECHCG); assay: as above; conditions: pre-emerge, phytotoxicity rating 0-100 at 14 days after application
Summary of the method: as §2

[19] = tested on: ivyleaf morningglory (Ipomoea hederacea, IPOHE); assay: as above; conditions: pre-emerge, phytotoxicity rating 0-100 at 14 days after application
Summary of the method: as §2

[20] = tested on: field corn (Zea mays L., var. Dekalb 535, CORN); assay: Pre-emerge test, crop safety; conditions: crop damage, pre-emerge, phytotoxicity rating 0-100 at 14 days after application
Summary of the method: (§3)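 Compounds in acetone were track-sprayed at 187 l/ha, 15–1000 g ai/ha, onto sandy loam pots. Pre-emerge seeds were sown one day before spraying, with surface watering afterwards. Post-emerge plants were at the 2–3 leaf stage and sprayed with 0.25% v/v non-ionic surfactant. Injury was rated 0–100 at 14 days.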

[21] = tested on: upland rice (Oryza sp., var. Tebonnet, RICE); assay: Pre-emerge test, crop safety; conditions: crop damage, pre-emerge, phytotoxicity rating 0-100 at 14 days after application
Summary of the method: as §3

[22] = tested on: redroot pigweed (Amaranthus retroflexus, AMARE); assay: Pre-emerge test, greenhouse herbicide activity screening; conditions: pre-emerge, phytotoxicity rating 0-100 at 14 days after application
Summary of the method: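 Plants grown in 10 cm pots of sandy loam mix received acetone-dissolved compounds through a moving flat-fan nozzle. Doses ranged from 15 to 1000 g ai/ha. Pre-emerge pots were seeded one day earlier, post-emerge pots 8–21 days earlier. Fourteen days on, each pot was graded 0–100 for damage.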

Q: What does the source list for `Cn1c(C(F)(F)F)cc(=O)n(-c2c(Cl)cc(Cl)cc2OC(=O)c2ccc(F)cc2F)c1=O` [16-4]?
A: Post-emerge Herbicidal Activity SORHA (phytotoxicity rating) ([1]; 63 g ai/ha): 0; Post-emerge Herbicidal Activity SORHA (phytotoxicity rating) ([1]; 250 g ai/ha): 0; Post-emerge Herbicidal Activity ABUTH (phytotoxicity rating) ([2]; 63 g ai/ha): 0; Post-emerge Herbicidal Activity ABUTH (phytotoxicity rating) ([2]; 250 g ai/ha): 0; Post-emerge Herbicidal Activity CASOB (phytotoxicity rating) ([3]; 63 g ai/ha): 0; Post-emerge Herbicidal Activity CASOB (phytotoxicity rating) ([3]; 250 g ai/ha): 0; Post-emerge Herbicidal Activity CHEAL (phytotoxicity rating) ([4]; 63 g ai/ha): 0; Post-emerge Herbicidal Activity CHEAL (phytotoxicity rating) ([4]; 250 g ai/ha): 0; Post-emerge Herbicidal Activity DIGSA (phytotoxicity rating) ([5]; 63 g ai/ha): 0; Post-emerge Herbicidal Activity DIGSA (phytotoxicity rating) ([5]; 250 g ai/ha): 0; Post-emerge Herbicidal Activity SETVI (phytotoxicity rating) ([6]; 63 g ai/ha): 0; Post-emerge Herbicidal Activity SETVI (phytotoxicity rating) ([6]; 250 g ai/ha): 0; Post-emerge Herbicidal Activity ECHCG (phytotoxicity rating) ([7]; 63 g ai/ha): 0; Post-emerge Herbicidal Activity ECHCG (phytotoxicity rating) ([7]; 250 g ai/ha): 0; Post-emerge Herbicidal Activity AMARE (phytotoxicity rating) ([8]; 63 g ai/ha, rating scale 0-100 (0 no damage, 100 complete death)): 0; Post-emerge Herbicidal Activity AMARE (phytotoxicity rating) ([8]; 250 g ai/ha, rating scale 0-100): 0; Post-emerge Herbicidal Activity IPOHE (phytotoxicity rating) ([9]; 63 g ai/ha): 0; Post-emerge Herbicidal Activity IPOHE (phytotoxicity rating) ([9]; 250 g ai/ha): 0; Post-emerge Herbicidal Activity CORN (crop damage rating) ([10]; 63 g ai/ha): 0; Post-emerge Herbicidal Activity CORN (crop damage rating) ([10]; 250 g ai/ha): 0; Post-emerge Herbicidal Activity RICE (crop damage rating) ([11]; 63 g ai/ha): 0; Post-emerge Herbicidal Activity RICE (crop damage rating) ([11]; 250 g ai/ha): 0

Q: Which “Pre-emerge Herbicidal Activity SORHA” value ([12]; rate 63 g ai/ha) does the source give for `COc1c(Cl)cc(F)c(-n2nnn(CCCF)c2=O)c1NC(=O)COCc1ccccc1` [Compound 5-28] here?
A: 20

Q: And the “Pre-emerge Herbicidal Activity SORHA” value ([12]; rate 250 g ai/ha)?
A: 30

Q: What about the “Pre-emerge Herbicidal Activity ABUTH” value ([13]; rate 63 g ai/ha) of the same compound?
A: 100

Q: What about the “Pre-emerge Herbicidal Activity ABUTH” value ([13]; rate 250 g ai/ha) of the same compound?
A: 100

Q: And the “Pre-emerge Herbicidal Activity CASOB” value ([14]; rate 63 g ai/ha)?
A: 100

Q: And the “Pre-emerge Herbicidal Activity CASOB” value ([14]; rate 250 g ai/ha)?
A: 100

Q: What about the “Pre-emerge Herbicidal Activity CHEAL” value ([15]; rate 63 g ai/ha) of the same compound?
A: 100

Q: And the “Pre-emerge Herbicidal Activity CHEAL” value ([15]; rate 250 g ai/ha)?
A: 100

Q: What about the “Pre-emerge Herbicidal Activity DIGSA” value ([16]; rate 63 g ai/ha) of the same compound?
A: 30

Q: What about the “Pre-emerge Herbicidal Activity DIGSA” value ([16]; rate 250 g ai/ha) of the same compound?
A: 90

Q: And the “Pre-emerge Herbicidal Activity SETVI” value ([17]; rate 63 g ai/ha)?
A: 50

Q: What about the “Pre-emerge Herbicidal Activity SETVI” value ([17]; rate 250 g ai/ha) of the same compound?
A: 85

Q: What about the “Pre-emerge Herbicidal Activity ECHCG” value ([18]; rate 63 g ai/ha) of the same compound?
A: 30

Q: What about the “Pre-emerge Herbicidal Activity ECHCG” value ([18]; rate 250 g ai/ha) of the same compound?
A: 60

Q: What about the “Pre-emerge Herbicidal Activity IPOHE” value ([19]; rate 63 g ai/ha) of the same compound?
A: 60

Q: What about the “Pre-emerge Herbicidal Activity IPOHE” value ([19]; rate 250 g ai/ha) of the same compound?
A: 100

Q: And the “Pre-emerge Herbicidal Activity CORN” value ([20]; rate 63 g ai/ha)?
A: 10

Q: What about the “Pre-emerge Herbicidal Activity CORN” value ([20]; rate 250 g ai/ha) of the same compound?
A: 20

Q: What about the “Pre-emerge Herbicidal Activity RICE” value ([21]; rate 63 g ai/ha) of the same compound?
A: 30

Q: What about the “Pre-emerge Herbicidal Activity RICE” value ([21]; rate 250 g ai/ha) of the same compound?
A: 60

Q: What about the “Pre-emerge Herbicidal Activity AMARE” value ([22]; rate 63 g ai/ha) of the same compound?
A: 100

Q: And the “Pre-emerge Herbicidal Activity AMARE” value ([22]; rate 250 g ai/ha)?
A: 100

Q: What about the “Post-emerge Herbicidal Activity ABUTH” value ([2]; 63 g ai/ha) of the same compound?
A: 100

Q: What about the “Post-emerge Herbicidal Activity ABUTH” value ([2]; 250 g ai/ha) of the same compound?
A: 100

Q: What about the “Post-emerge Herbicidal Activity CASOB” value ([3]; 63 g ai/ha) of the same compound?
A: 90

Q: What about the “Post-emerge Herbicidal Activity CASOB” value ([3]; 250 g ai/ha) of the same compound?
A: 100

Q: And the “Post-emerge Herbicidal Activity CHEAL” value ([4]; 63 g ai/ha)?
A: 100

Q: And the “Post-emerge Herbicidal Activity CHEAL” value ([4]; 250 g ai/ha)?
A: 100

Q: What about the “Post-emerge Herbicidal Activity DIGSA” value ([5]; 63 g ai/ha) of the same compound?
A: 10

Q: And the “Post-emerge Herbicidal Activity DIGSA” value ([5]; 250 g ai/ha)?
A: 30

Q: And the “Post-emerge Herbicidal Activity SETVI” value ([6]; 63 g ai/ha)?
A: 10

Q: And the “Post-emerge Herbicidal Activity SETVI” value ([6]; 250 g ai/ha)?
A: 30

Q: And the “Post-emerge Herbicidal Activity ECHCG” value ([7]; 63 g ai/ha)?
A: 0

Q: What about the “Post-emerge Herbicidal Activity ECHCG” value ([7]; 250 g ai/ha) of the same compound?
A: 50

Q: What about the “Post-emerge Herbicidal Activity AMARE” value ([8]; 63 g ai/ha) of the same compound?
A: 100

Q: What about the “Post-emerge Herbicidal Activity AMARE” value ([8]; 250 g ai/ha) of the same compound?
A: 100

Q: And the “Post-emerge Herbicidal Activity IPOHE” value ([9]; 63 g ai/ha)?
A: 100

Q: What about the “Post-emerge Herbicidal Activity IPOHE” value ([9]; 250 g ai/ha) of the same compound?
A: 100

Q: What about the “Post-emerge Herbicidal Activity CORN” value ([10]; 63 g ai/ha) of the same compound?
A: 25

Q: And the “Post-emerge Herbicidal Activity CORN” value ([10]; 250 g ai/ha)?
A: 70

Q: What about the “Post-emerge Herbicidal Activity RICE” value ([11]; 63 g ai/ha) of the same compound?
A: 60

Q: And the “Post-emerge Herbicidal Activity RICE” value ([11]; 250 g ai/ha)?
A: 70
